Source: article PMC9457533, “Study on Metronidazole Acid-Base Behavior and Speciation with Ca^2+ for Potential Applications in Natural Waters” (Molecules, 2022)
Where “and” joins values, the source holds several entries; their conditions need not be identical. Identical values can stand only once.

Legend:
[1] = 1H NMR titrations: protonation constants of MNZ; type: physicochemical; conditions: t = 25 °C, I = 0.15 mol L^-1
Procedure: The acid-base behavior of the ligand was also investigated by ^1H NMR. Various spectroscopic titrations were therefore carried out on solutions containing L to determine the values of the chemical shifts, and to refine the protonation constant values. The ^1H NMR spectra, shown in Figure 5 at various pH values and t = 25 °C, show four distinct signals: a singlet associated with CH3 protons, two triplets related to the protons of the two CH2, indicated as CH2a and CH2b, and a singlet of the CH proton present in the imidazole ring. An upfield of 0.3 ppm of the CH chemical shift can be observed as a consequence of the deprotonation of the imidazole group for the pH increase. A similar behavior can be observed for the CH3 in which the chemical shift is 0.2 ppm. […] Furthermore, M-L solutions were analyzed by ^1H NMR at t = 25 °C and I = 0.15 mol L^−1, using a procedure already employed for other systems. The experimental spectra were reported in the Supplementary Materials.
NMR measurements were performed by Varian 500 NMR spectrometer. The ^1H NMR spectra were recorded using 90% H2O and 10% D2O as solvent and the chemical shifts were referred to the 1,4-dioxane signal (δCHdioxane = 3.7 ppm). […] Ca^2+-L spectra were recorded at the same conditions of ionic strength, temperature, and pH range of the free ligand. […]

[2] = Potentiometric titrations: formation constant of Ca^2+-MNZ species (CaLH) in NaCl; type: physicochemical; conditions: for logK^CaLH: Ca + LH = CaLH
Procedure: To investigate the interaction between MNZ and Ca^2+, various potentiometric titrations were also performed on solutions containing different metal/ligand ratios. The reactions related to formation constants are indicated below, where the charges are omitted for simplicity and MNZ was indicated as L:Ca + L + rH = MLHr β^MLH^r(3) Ca + LHr = MLHr K^MLH^r(4)
Hydrolysis constant values of Ca^2+ species at various temperatures and ionic strength in NaCl, taken into account in the calculations relating to the M-L system, are reported in Supplementary Material. The most accurate speciation model is chosen by evaluating several factors, which are the statistical parameters standard and mean deviation, the formation percentages of the considered species, and the simplicity of the model. Based on potentiometric results, several computational tests were carried out considering different speciation models.
The potentiometric titrations were employed by Metrohm-Titrando 809 automated potentiometer with a combined glass electrode ORION, type Ross 8102SC and a Metrohm Dosino 800 automatic dispenser. The titrations were performed in cells with a capacity of 25 mL, characterized by a double wall inside which thermostated water circulates. The cells were connected to a thermostat model D1-G Haake. During the measurements, pure N2 was bubbled to avoid CO2 and O2 in solution. The system is interfaced to a PC through the Metrohm TIAMO 2.0 software, which automatically acquires the mL/mV pairs. It can control several parameters, such as e.m.f. stability, titrant delivery, and data acquisition. Estimated accuracy of this apparatus is ±0.15 mV and ±0.002 mL for e.m.f. and for readings of titrant volume. The acid-base titrations were carried out first on 25 mL solutions containing L, HCl, and NaCl as supporting electrolytes at different temperatures and ionic strength conditions. […] The solutions were titrated using standard NaOH solution. A calibration was associated with each measurement by titration with NaOH of a solution containing HCl, NaCl, and H2O, in order to calculate the standard electrode potential (E^0) and the pKw values.
The protonation constant of MNZ (L), formation constant values of Ca^2+(M)-MNZ (L), and titration parameters (analytical concentration of the reagents, standard potential E^0, junction potential) were determined by using BSTAC and STACO programs. LIANA program has provided the parameters characterizing the dependence of the protonation and formation constant values on the temperature and ionic strength. More details on software are present in ref. [59]. ^1H NMR data were processed by HypNMR software, which allows for calculating protonation and formation constant values and the individual chemical shift of species through the observed signals and assuming fast mutual exchange in the NMR time scale. UV-Vis data are processed by the HypSpec program, which allows refining of the protonation and formation constant as well as the molar absorption coefficient values (ε) of the species. The speciation diagrams and the formation percentage of the species are determined by the Hyss program.

[3] = design: method as in PMID 33975173; conditions: t = 25 °C, I = 0.1 mol L^-1 in NaClO4, spectrophotometry; cited from earlier work

SMILES: Cc1ncc([N+](=O)[O-])n1CCO [MNZ, 2-Methyl-5-nitroimidazole-1-ethanol]
- logβ H-NMR ([1]; L + 2H = LH2): 14.13(1)
- logβ H-NMR ([1]; L + H = LH): 11.81(1) ^1
- logβ^CaLH ([2]; Ca + L + H = CaLH, t = 15 °C, I = 0.16 mol L^-1 NaCl): 14.06(11) ^4, 5
- logβ average value ([2]; Ca + L + H = CaLH, t = 25 °C, I = 0.15 mol L^-1, average of UV, potentiometry): 14.16(7)
- logβ^CaLH ([2]; Ca + L + H = CaLH, t = 25 °C, I = 0.5 mol L^-1 NaCl): 15.00(2)
- logβ^CaLH ([2]; Ca + L + H = CaLH, t = 25 °C, I = 0.98 mol L^-1 NaCl): 14.60(5) ^6
- logβ^CaLH ([2]; Ca + L + H = CaLH, t = 37 °C, I = 0.15 mol L^-1 NaCl): 13.56(8) ^7
- logK^CaLH ([2]; t = 15 °C, I = 0.16 mol L^-1 NaCl): 2.06 ^5
- logK^CaLH ([2]; t = 25 °C, I = 0.16 mol L^-1 NaCl (text: 0.15)): 2.49 ^5
- logK^CaLH ([2]; t = 25 °C, I = 0.5 mol L^-1 NaCl): 2.49
- logK^CaLH ([2]; t = 25 °C, I = 0.98 mol L^-1 NaCl): 2.38 ^6
- logK^CaLH ([2]; t = 37 °C, I = 0.15 mol L^-1 NaCl): 1.68 and 1.68 ^7
- logK2 (protonation constant) [3]: 2.15
